From patent publication US11000033B2, “Ketone or oxime compound, and herbicide” (NISSAN CHEMICAL CORPORATION, priority 2014, dated 2021) come the findings set out here.

Holding throughout (assay type): in vivo
Data set [1] deals with Echinochloa oryzacola Vasing. The experiment in a line: Test Example 1: herbicidal activity, application before weed generation in submerged conditions (symbol A). The conditions noted are these: application herbicide amount 320 g/ha. In short, it runs like this:
(§1)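 Pre-emergence, paddy conditions: emulsifiable formulation diluted in water, dosed onto floodwater (4 cm depth) on sowing day. Alluvial soil; weeds sown mixed; rice transplanted at 2.5-leaf stage. Greenhouse 25–30 °C, 3 wk. Score 0–5 (5 = ≥90% kill, 0 = ≤5%).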

Data set [2] relates to Monochoria vaginalis. The experiment in a line: Test Example 1: herbicidal activity, application before weed generation in submerged conditions (symbol C). The following applies: application herbicide amount 320 g/ha. Summed up:
as §1

Data set [3] deals with Monochoria vaginalis. The experiment in a line: Test Example 2: herbicidal activity, application during weed generation in submerged conditions (symbol C). The conditions noted are these: Table 23; application herbicide amount 320 g/ha; grade 0-5 by criteria of Test Example 1. In short, it runs like this:
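Each pot contained alluvial soil under 4 cm of water with seeds of all three weeds sown together. Following growth at 25° C. to 30° C. to the one- to two-leaf stage, the floodwater received diluted emulsion at a predetermined amount; visual assessment followed at 3 weeks.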

In data set [4] the test system is Echinochloa crus-galli var. crus-galli. The experiment in a line: Test Example 4: herbicidal effect by soil treatment (symbol H). The following applies: application herbicide amount 320 g/ha. In short, it runs like this: (§2)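 Seeds were sown in sterilized diluvial soil, covered with about 1.5 cm of soil, and the soil surface was sprayed with a water-diluted emulsion of the compound at a predetermined rate. Plants grew in a greenhouse at 25° C. to 30° C.; effects were scored visually 3 weeks after application.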

The test system of data set [5] is Avena fatua. The experiment in a line: Test Example 4: herbicidal effect by soil treatment (symbol I). The following applies: application herbicide amount 320 g/ha. In short, it runs like this:
as §2

The subject of data set [6] is Apera spica-venti. The experiment in a line: Test Example 4: herbicidal effect by soil treatment (symbol L). The following applies: application herbicide amount 320 g/ha. Summed up: as §2
For another data set, the system named is Abutilon theophrasti. The experiment in a line: Test Example 4: herbicidal effect by soil treatment (symbol M). The conditions noted are these: application herbicide amount 320 g/ha. In short, it runs like this: as §2
For another data set, the system named is soybean. The experiment in a line: Test Example 4: effect on crop by soil treatment (symbol d). The following applies: application herbicide amount 320 g/ha. In short, it runs like this: (§3)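 Sterilized diluvial soil, spot sowing, ~1.5 cm soil cover; greenhouse 25–30° C.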
The subject of the next data set is rice. The experiment in a line: Test Example 4: effect on crop by soil treatment (symbol b). The conditions noted are these: application herbicide amount 320 g/ha. Summed up: as §3
The next data set relates to beet. The experiment in a line: Test Example 4: effect on crop by soil treatment (symbol f). The conditions noted are these: application herbicide amount 320 g/ha. In short, it runs like this: as §3
A further data set relates to Setaria viridis. The experiment in a line: Test Example 5: herbicidal effect by foliage application, plastic box (symbol G). The conditions noted are these: 320 g/ha, 3 weeks after application. Summed up:
(§4)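 Leaf-applied emulsion, water-diluted to a preset herbicide dose, on two-week-old seedlings raised in a 25° C. to 30° C. greenhouse; injury rated at 3 weeks using earlier criteria.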

For data set [7], the system named is Echinochloa crus-galli var. crus-galli. The experiment in a line: Test Example 5: herbicidal effect by foliage application, plastic box (symbol H). The following applies: 320 g/ha, 3 weeks after application. In short, it runs like this:
as §4

Data set [8] concerns Avena fatua. The experiment in a line: Test Example 5: herbicidal effect by foliage application, plastic box (symbol I). The following applies: 320 g/ha, 3 weeks after application. In short, it runs like this: as §4
Data set [9] has as its system Apera spica-venti. The experiment in a line: Test Example 5: herbicidal effect by foliage application, plastic box (symbol L). The following applies: 320 g/ha, 3 weeks after application. In short, it runs like this:
as §4

Another data set concerns corn. The experiment in a line: Test Example 5: effect on crop by foliage application, plastic box (symbol c). The conditions noted are these: 320 g/ha, 3 weeks after application. In short, it runs like this:
(§5)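 A greenhouse held between 25° C. and 30° C. was used to grow plants sown spot-wise, beneath ~1.5 cm of soil, in boxes of sterilized diluvial soil.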

For the next data set, the system named is rapeseed. The experiment in a line: Test Example 5: effect on crop by foliage application, plastic box (symbol g). The following applies: 320 g/ha, 3 weeks after application. In short, it runs like this:
as §5

With `CON=C(C)CC1CC(O)=C(c2c(C)cc(Oc3ccccc3)cc2C)C1=O` (centres unmarked) [6-052], in data set [1], the “Herbicidal effect grade, A: Echinochloa oryzacola Vasing.” value is 4 (Herbicidal ratio of 70% or higher and lower than 90%). Besides, the “Herbicidal effect grade, C: Monochoria vaginalis” value with Monochoria vaginalis [2] and in the data set with Monochoria vaginalis [3] was 0 (Herbicidal ratio of 5% or lower (almost no effect)) in each case. Further, the “H: Echinochloa crus-galli var. crus-galli, herbicidal effect grade” value in [4] is 4 (Herbicidal ratio of 70% or higher and lower than 90%); in data set [7] it was 5 (Herbicidal ratio of 90% or more (almost completely withered)). Besides, the “I: Avena fatua, herbicidal effect grade” value is 0 (Herbicidal ratio of 5% or lower (almost no effect)) in the data set with Avena fatua [5]; 2 (Herbicidal ratio of 20% or higher and lower than 40%) in the data set on Avena fatua [8]. Further, the “L: Apera spica-venti, herbicidal effect grade” value in the data set on Apera spica-venti [6] was 5 (Herbicidal ratio of 90% or more (almost completely withered)); with Apera spica-venti [9] it was 4 (Herbicidal ratio of 70% or higher and lower than 90%). In addition, in the data set with Abutilon theophrasti, the “M: Abutilon theophrasti, herbicidal effect grade” value is recorded as 0 (Herbicidal ratio of 5% or lower (almost no effect)). In the data set with soybean, the “d: soybean, effect on crop grade” value is listed as 0 (Herbicidal ratio of 5% or lower (almost no effect)). Further, the “b: directly sowed rice plant, effect on crop grade” value with rice is 1 (Herbicidal ratio of 5% or higher and lower than 20%). For the same compound, in the data set with beet, the “f: beet, effect on crop grade” value is 0 (Herbicidal ratio of 5% or lower (almost no effect)). Moreover, the “G: Setaria viridis, herbicidal effect grade” value with Setaria viridis is on record as 5 (Herbicidal ratio of 90% or more (almost completely withered)). For the same compound, the “c: corn, effect on crop grade” value with corn was 3 (Herbicidal ratio of 40% or higher and lower than 70%). Also, the “g: rapeseed, effect on crop grade” value in the data set with rapeseed was 3 (Herbicidal ratio of 40% or higher and lower than 70%).

On to `CON=C(C)CC1CC(O)=C(c2c(C)cc(-c3ccc(OC(F)(F)F)cc3)cc2C)C1=O` (mixture of isomers) [6-056], for which the “Herbicidal effect grade, A: Echinochloa oryzacola Vasing.” value in [1] is 3 (Herbicidal ratio of 40% or higher and lower than 70%). The “Herbicidal effect grade, C: Monochoria vaginalis” value with Monochoria vaginalis [2] and in the data set with Monochoria vaginalis [3] was 0 (Herbicidal ratio of 5% or lower (almost no effect)) in each case. Besides, the “H: Echinochloa crus-galli var. crus-galli, herbicidal effect grade” value in data set [4] was 0 (Herbicidal ratio of 5% or lower (almost no effect)). In the data set with Avena fatua [5], the “I: Avena fatua, herbicidal effect grade” value is 0 (Herbicidal ratio of 5% or lower (almost no effect)). Further, in the data set on Apera spica-venti [6], the “L: Apera spica-venti, herbicidal effect grade” value is on record as 0 (Herbicidal ratio of 5% or lower (almost no effect)). Besides, in the data set with Abutilon theophrasti, the “M: Abutilon theophrasti, herbicidal effect grade” value is recorded as 0 (Herbicidal ratio of 5% or lower (almost no effect)). Besides, the “d: soybean, effect on crop grade” value in the data set on soybean is recorded as 0 (Herbicidal ratio of 5% or lower (almost no effect)). Besides, the “b: directly sowed rice plant, effect on crop grade” value in the data set on rice is 1 (Herbicidal ratio of 5% or higher and lower than 20%). In addition, the “f: beet, effect on crop grade” value with beet was 0 (Herbicidal ratio of 5% or lower (almost no effect)). Besides, the “G: Setaria viridis, herbicidal effect (criteria of Test Example 1)” value in the data set with Setaria viridis is 5 (Herbicidal ratio of 90% or more (almost completely withered)). Moreover, in [7], the “H: Echinochloa crus-galli var. crus-galli, herbicidal effect (criteria of Test Example 1)” value is 4 (Herbicidal ratio of 70% or higher and lower than 90%). For the same compound, in the data set with Avena fatua [8], the “I: Avena fatua, herbicidal effect (criteria of Test Example 1)” value is 3 (Herbicidal ratio of 40% or higher and lower than 70%). In addition, the “L: Apera spica-venti, herbicidal effect (criteria of Test Example 1)” value in the data set with Apera spica-venti [9] was 3 (Herbicidal ratio of 40% or higher and lower than 70%). Further, in the data set with corn, the “c: corn, effect on crop (criteria of Test Example 1)” value is 1 (Herbicidal ratio of 5% or higher and lower than 20%). Besides, the “g: rapeseed, effect on crop (criteria of Test Example 1)” value with rapeseed was 3 (Herbicidal ratio of 40% or higher and lower than 70%).
